pIC50: −log10 of the molar value.
Experiments:
[1] = test system: malonyl-CoA levels in muscle tissue; assay: Acute in vivo assessment of ACC inhibition: malonyl-CoA levels in muscle tissue (quadriceps); set-up: species or system male Sprague-Dawley Rats; conditions: relative to chow-fed vehicle control group, % decrease +/- SEM
Method: (§1) The ACC inhibitory activity of the compound of the present invention can be confirmed in vivo by evaluation of their ability to reduce malonyl-CoA levels in liver and muscle tissue from treated animals.
(§2) Measurement of malonyl-CoA production inhibition in experimental animals. In this method, male Sprague-Dawley Rats, maintained on standard chow and water ad libitum (225-275 g), were randomized prior to the study. Animals were either fed, or fasted for 18 hours prior to the beginning of the experiment. Two hours into the light cycle the animals were orally dosed with a volume of 5 mL/kg, (0.5% methyl cellulose; vehicle) or with the appropriate compound (prepared in vehicle). Fed vehicle controls were included to determine baseline tissue malonyl-CoA levels while fasted animals were included to determine the effect fasting had on malonyl-CoA levels. One hour after compound administration the animals were asphyxiated with CO2 and the tissues were removed. Specifically, blood was collected by cardiac puncture and placed into BD Microtainer tubes containing EDTA (BD Biosciences, NJ), mixed, and placed on ice. Plasma was used to determine drug exposure. Liver and quadriceps were removed, immediately freeze-clamped, wrapped in foil and stored in liquid nitrogen.
(§3) Tissues were pulverized under liquid N2 to ensure uniformity in sampling. Malonyl-CoA was extracted from the tissue (150-200 mg) with 5 volumes 10% […] in Lysing Matrix A (MP Biomedicals, PN 6910) in a FastPrep FP120 (Thermo Scientific, speed=5.5; for 45 seconds). The supernatant containing malonyl-CoA was removed from the cell debris after centrifugation at 15000×g for 30 minutes (Eppendorf Centrifuge 5402). Samples were stably frozen at −80 C until analysis is completed.
(§4) Analysis of malonyl CoA levels in liver and muscle tissue can be evaluated using the following methodology.
(§5) The method utilizes the following materials: Malonyl-CoA tetralithium salt and malonyl-^13C3-CoA trilithium salt which were purchased from Isotec (Miamisburg, Ohio, USA), sodium perchlorate (Sigma, cat no. 410241), trichloroacetic acid (ACROS, cat no. 42145), phosphoric acid (J. T. Baker, cat no. 0260-01), ammonium formate (Fluke, cat no. 17843), methanol (HPLC grade, J. T. Baker, cat no. 9093-33), and water (HPLC grade, J. T. Baker, 4218-03) were used to make the necessary mobile phases. Strata-X on-line solid phase extraction columns, 25 μm, 20 mm×2.0 mm I.D (cat no. 00M-S033-B0-CB) were obtained from Phenomenex (Torrance, Calif., USA). SunFire C18 reversed-phase columns, 3.5 μm, 100 mm×3.0 mm I.D. (cat no. 186002543) were purchased from Waters Corporation (Milford, Mass., USA).
(§6) This method may be performed utilizing the following equipment. Two-dimensional chromatography using an Agilent 1100 binary pump, an Agilent 1100 quaternary pump and two Valco Cheminert 6-port two position valves. Samples were introduced via a LEAP HTC PAL auto sampler with Peltier cooled stack maintained at 10° C. and a 20 μL sampling loop. The needle wash solutions for the autosampler are 10% trichloroacetic acid in water (w/v) for Wash 1 and 90:10 methanol:water for Wash 2. The analytical column (Sunfire) was maintained at 35° C. using a MicroTech Scientific Micro-LC Column Oven. The eluant was analyzed on an ABI Sciex API3000 triple quadrupole mass spectrometer with Turbo Ion Spray.
(§7) Two-dimensional chromatography was performed in parallel using distinct gradient elution conditions for on-line solid phase extraction and reversed-phase chromatography. The general design of the method was such that the first dimension was utilized for sample clean-up and capture of the analyte of interest followed by a brief coupling of both dimensions for elution from the first dimension onto the second dimension. The dimensions were subsequently uncoupled allowing for gradient elution of the analyte from the second dimension for quantification while simultaneously preparing the first dimension for the next sample in the sequence. […]

recombinant human ACC2 = biological target: T1, recombinant human ACC2 (Homo sapiens, UniProt O00763); assay: Measurement of human ACC2 inhibition (recombinant hACC2 Transcreener ADP detection FP assay); format: biochemical; conditions: recombinant hACC2 transcreener assay; read-out: rhACC2 IC50
T1 construct: a full length Cytomax clone of ACC2 was purchased from Cambridge Bioscience Limited; made in house; host or cells: CHO cells (tetracycline induction, pcDNA5 FRT TO-TOPO); purified on a Softlink Soft Release Avidin column
T1 sequence (O00763 whole entry): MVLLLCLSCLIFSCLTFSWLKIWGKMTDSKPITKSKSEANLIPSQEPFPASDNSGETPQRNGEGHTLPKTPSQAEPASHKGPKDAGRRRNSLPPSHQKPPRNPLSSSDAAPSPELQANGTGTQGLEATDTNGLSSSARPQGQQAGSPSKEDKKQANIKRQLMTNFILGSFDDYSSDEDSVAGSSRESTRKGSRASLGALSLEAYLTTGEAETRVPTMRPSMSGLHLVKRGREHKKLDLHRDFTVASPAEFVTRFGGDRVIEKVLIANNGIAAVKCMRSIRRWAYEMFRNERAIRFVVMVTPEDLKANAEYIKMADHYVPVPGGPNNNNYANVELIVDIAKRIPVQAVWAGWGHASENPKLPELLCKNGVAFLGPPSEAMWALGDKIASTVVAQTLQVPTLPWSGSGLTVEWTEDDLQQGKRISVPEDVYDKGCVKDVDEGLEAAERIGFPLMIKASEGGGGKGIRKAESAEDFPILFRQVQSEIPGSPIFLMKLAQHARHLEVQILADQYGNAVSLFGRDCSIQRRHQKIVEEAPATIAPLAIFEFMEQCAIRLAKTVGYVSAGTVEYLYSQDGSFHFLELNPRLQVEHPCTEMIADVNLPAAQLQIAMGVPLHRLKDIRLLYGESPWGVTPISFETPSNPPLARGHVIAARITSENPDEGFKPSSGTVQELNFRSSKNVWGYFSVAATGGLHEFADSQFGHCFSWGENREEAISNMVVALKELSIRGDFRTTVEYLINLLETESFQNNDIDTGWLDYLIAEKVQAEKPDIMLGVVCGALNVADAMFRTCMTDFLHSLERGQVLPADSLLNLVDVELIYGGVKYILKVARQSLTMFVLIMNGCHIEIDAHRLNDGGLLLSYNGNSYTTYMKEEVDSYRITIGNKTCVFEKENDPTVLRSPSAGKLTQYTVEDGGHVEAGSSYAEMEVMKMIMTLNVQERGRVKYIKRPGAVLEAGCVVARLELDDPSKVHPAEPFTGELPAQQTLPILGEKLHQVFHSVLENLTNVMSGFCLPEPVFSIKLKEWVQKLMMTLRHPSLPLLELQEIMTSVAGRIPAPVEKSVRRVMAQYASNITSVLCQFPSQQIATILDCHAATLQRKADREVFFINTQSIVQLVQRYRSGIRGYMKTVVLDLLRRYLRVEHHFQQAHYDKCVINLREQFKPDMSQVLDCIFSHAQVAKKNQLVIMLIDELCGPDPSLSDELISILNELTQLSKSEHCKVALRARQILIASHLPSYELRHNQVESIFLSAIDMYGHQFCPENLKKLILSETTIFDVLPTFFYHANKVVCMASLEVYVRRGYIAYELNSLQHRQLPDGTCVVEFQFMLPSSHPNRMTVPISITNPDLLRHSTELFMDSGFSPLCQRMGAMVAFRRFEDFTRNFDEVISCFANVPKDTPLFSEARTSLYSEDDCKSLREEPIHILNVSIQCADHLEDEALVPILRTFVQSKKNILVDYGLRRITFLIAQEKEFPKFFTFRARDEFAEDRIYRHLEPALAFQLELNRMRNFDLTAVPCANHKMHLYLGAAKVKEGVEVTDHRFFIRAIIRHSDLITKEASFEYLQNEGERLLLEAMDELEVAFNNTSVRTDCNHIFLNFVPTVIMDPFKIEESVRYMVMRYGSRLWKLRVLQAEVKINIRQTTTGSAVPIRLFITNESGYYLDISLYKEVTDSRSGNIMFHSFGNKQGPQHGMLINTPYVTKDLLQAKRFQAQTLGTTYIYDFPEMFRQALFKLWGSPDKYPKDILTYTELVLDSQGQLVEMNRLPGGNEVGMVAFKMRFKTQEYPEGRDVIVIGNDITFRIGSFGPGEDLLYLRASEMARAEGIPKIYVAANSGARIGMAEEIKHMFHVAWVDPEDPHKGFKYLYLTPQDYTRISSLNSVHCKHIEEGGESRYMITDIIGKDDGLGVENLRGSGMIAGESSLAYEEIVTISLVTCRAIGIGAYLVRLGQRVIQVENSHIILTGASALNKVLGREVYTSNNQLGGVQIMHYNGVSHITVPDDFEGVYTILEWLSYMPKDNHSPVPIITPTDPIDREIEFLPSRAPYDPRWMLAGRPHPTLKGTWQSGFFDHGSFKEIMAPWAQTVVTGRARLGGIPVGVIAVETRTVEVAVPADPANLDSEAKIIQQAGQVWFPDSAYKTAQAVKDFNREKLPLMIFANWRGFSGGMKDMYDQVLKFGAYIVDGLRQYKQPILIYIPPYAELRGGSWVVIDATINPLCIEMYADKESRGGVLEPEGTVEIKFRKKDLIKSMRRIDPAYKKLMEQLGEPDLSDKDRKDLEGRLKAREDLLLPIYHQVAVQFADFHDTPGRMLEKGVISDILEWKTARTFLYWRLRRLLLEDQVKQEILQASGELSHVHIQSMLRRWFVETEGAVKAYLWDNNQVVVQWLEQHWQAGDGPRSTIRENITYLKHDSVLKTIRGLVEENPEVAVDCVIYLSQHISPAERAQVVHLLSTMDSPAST
In short: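 Purified hACC2 from tetracycline-induced CHO cells (avidin-column eluate) was run in 50 mM HEPES pH7.5, 5 mM MgCl2, 5 mM citrate, 2 mM DTT, 0.5 mg/mL BSA with 30 μM acetyl-CoA, 50 μM ATP and 8 mM KHCO3. Reaction lasted 1 hour at room temperature; ADP was detected by Transcreener FP after another 1 hour.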

[2] = test system: malonyl-CoA levels in liver; assay: Acute in vivo assessment of ACC inhibition: malonyl-CoA levels in liver tissue; set-up: species or system male Sprague-Dawley Rats; conditions: relative to chow-fed vehicle control group, % decrease +/- SEM
Method: as §1, §2, §3, §4, §5, §6, §7

rat liver ACC = rat liver ACC (Rattus norvegicus, UniProt P11497); format: biochemical; conditions: rat liver ACC radio enzymatic assay
Method: [1] Preparation of rat liver ACC. Rat liver ACC was obtained from rat liver based upon standard procedures such as those described by Thampy and Wakil (J. Biol. Chem. 260: 6318-6323; 1985) using the following method.
Male CD rats weighing 150-200 g were fasted for 18-24 hours and then fed a high sucrose diet (AIN-76A rodent diet; Cat # D10001, Research Diets Inc., New Brunswick, N.J.), for 3 days at which time they were sacrificed by CO2 asphyxiation. The livers were removed, rinsed in ice-cold phosphate-buffered saline (PBS), and homogenized in 5 volumes of homogenization buffer (50 mM potassium phosphate, pH 7.5, 10 mM EDTA, 10 mM 2-mercaptoethanol, 2 mM benzamidine, 0.2 mM phenylmethylsulfonylfluoride (PMSF), 5 mg/L each leupeptin, aprotinin, and antitrypsin) in a Waring® blender for 1 minute at 4° C. All subsequent operations were carried out at 4° C. The homogenate has made 3% with respect to polyethylene glycol (PEG) by the addition of 50% PEG solution and centrifuged at 20,000×g for 15 minutes. The resulting supernatant was adjusted to 5% PEG with the addition of 50% PEG solution and stirred for 5 minutes. The pellet (contains ACC activity) was collected by centrifugation at 20,000×g for 20 minutes, rinsed with ice-cold doubly distilled water to remove excess PEG and re-suspended in one-fourth the original homogenate volume with homogenization buffer. Ammonium sulfate (200 g/liter) was slowly added with stirring. After 45 minutes the enzyme is collected by centrifugation for 30 minutes at 20,000×g, re-suspended in 10 mL of 50 mM HEPES, pH7.5, 0.1 mM DTT, 1.0 mM EDTA, and 10% glycerol and desalted on a Sephadex™ G-25 column (2.5 cm×50 cm) (Pharmacia, Piscataway N.J. now GE Healthcare) equilibrated with the same buffer. The desalted enzyme preparation was stored in aliquots at −70° C. Immediately prior to use, frozen rat liver ACC aliquots were thawed, diluted to 500 μg/mL in buffer containing 50 mM HEPES, pH7.5, 10 mM MgCl2, 10 mM tripotassium citrate, 2.0 mM dithiothreitol (DTT), and 0.75 mg/mL fatty acid-free bovine serum albumin (BSA) and pre-incubated at 37° C. for 30 minutes.
[2] Measurement of rat liver ACC inhibition. For measurement of ACC activity and assessment of ACC inhibition, test compounds were dissolved in dimethylsulfoxide (DMSO) and 1 μL aliquots were added to a clear bottom, 96-well plates (Perkin-Elmer PN#1450-514). Control wells contain 1 μL of DMSO alone or 1 μL of high inhibition compound. The enzyme obtained from rat liver as described above was activated in Enzyme buffer at 37° C. for 30 minutes prior to addition to compound plate. All wells receive 75 μL of activated enzyme (1.33×) in a buffer containing 50 mM HEPES, pH7.5, 7.5 mM MgCl2 7.5 mM tripotassium citrate, 2 mM DTT, 50 mg/mL BSA. The activated enzyme was pre-incubated with the cmpd for 10 minute prior to initiating the reaction through the addition of 25 μL of substrate solution containing 50 mM HEPES, pH7.5, 7.5 mM MgCl2 7.5 mM tripotassium citrate, 2 mM DTT, 50 mg/mL BSA, 120 μM acetyl-CoA, 8.0 mM ATP, 38.4 mM KHCO3, and 1.6 mM NaH[^14C]O3 ([…]). The final substrate concentrations in the reaction were 30 μM Acetyl-CoA, 9.6 mM KHCO3, 0.4 mM NaH[^14C]O3, and 2 mM ATP. The reaction was terminated after 10 mins by the addition of 25 μL 3N HCl and the plates were dried at 50° C. for a minimum 20 hrs. 30 μL of water was added to the dried plate and mixed for 5 minutes. 95 μL of Optiphase Supermix liquid scintillation fluid (Perkin Elmer, Waltham, Mass.) was added and the plates are mixed for 20 minutes. Incorporation of ^14C into MCoA was measured using a Wallac Trilux 1450 Microbeta LSC luminescence counter.

| SMILES | Percent decrease in Muscle Malonyl-CoA (quadriceps) ([1]; dose 1 mg/kg) | Percent decrease in Muscle Malonyl-CoA (quadriceps) ([1]; dose 3 mg/kg) | Percent decrease in Muscle Malonyl-CoA (quadriceps) ([1]; dose 10 mg/kg) | Percent decrease in Muscle Malonyl-CoA (quadriceps) ([1]; dose 30 mg/kg) | pIC50 (recombinant human ACC2) | Percent decrease in Liver Malonyl-CoA ([2]; dose 1 mg/kg) | Percent decrease in Liver Malonyl-CoA ([2]; dose 3 mg/kg) | Percent decrease in Liver Malonyl-CoA ([2]; dose 10 mg/kg) | Percent decrease in Liver Malonyl-CoA ([2]; dose 30 mg/kg) | pIC50 (rat liver ACC) |
| --- | --- | --- | --- | --- | --- | --- | --- | --- | --- | --- |
| CCn1nc2c(c1C)OC1(CCN(C(=O)c3cc(C)c4[nH]nc(C)c4c3)CC1)CC2=O [1.001] | 5.69 (8.73) % | 2.90 (4.29) % | 22.83 (5.72) % | 48.03 (2.63) % | 7.96 | 28.29 (8.40) % | 30.37 (11.50) % | 45.45 (3.51) % | 54.31 (7.63) % |  |
| CC(C)(C)n1cc2c(n1)C(=O)CC1(CCN(C(=O)c3ccc4ncsc4c3)CC1)O2 [10.002] |  |  |  |  | 7.60 |  |  |  |  | 7.34 |
| Cc1cc(C(=O)N2CCC3(CC2)CC(=O)c2nn(C4CCC4)cc2O3)cc2cn[nH]c12 [1.039] |  |  |  |  | 7.89 |  |  |  |  | 7.82 |
| CCn1cc2c(n1)C(=O)CC1(CCN(C(=O)c3cc(C)c4[nH]nc(C)c4c3)CC1)O2 [1.003] | −3.72 (8.87) % | 21.23 (8.81) % | 33.30 (4.83) % | 48.81 (3.51) % | 7.96 | 31.45 (4.12) % | 47.61 (4.70) % | 67.40 (5.67) % | 70.47 (2.48) % |  |
| Cc1n[nH]c2c(C)cc(C(=O)N3CCC4(CC3)CC(=O)c3nn(C(C)(C)C)cc3O4)cc12 [1.012] | 31.53 (3.58) % | 43.01 (4.24) % | 59.48 (5.28) % | 71.08 (2.18) % | 8.70 | 40.32 (6.24) % | 54.87 (3.22) % | 75.72 (2.47) % | 86.52 (1.49) % |  |
| COc1ccc2cc(C(=O)N3CCC4(CC3)CC(=O)c3nn(C(C)(C)C)cc3O4)ccc2c1 [6.004] |  |  |  |  | 7.42 |  |  |  |  | 7.11 |
| CCOc1cc(C(=O)N2CCC3(CC2)CC(=O)c2nn(CC)c(C)c2O3)cc2c(CC)n[nH]c12 [1.119] |  |  |  |  | 7.74 |  |  |  |  | 7.89 |
| CC(C)n1cc2c(n1)C(=O)CC1(CCN(C(=O)c3ccc4cn(C)nc4c3)CC1)O2 [5.002] |  |  |  |  | 6.83 |  |  |  |  | 6.70 |

— patent US8318762B2, “Pyrazolospiroketone acetyl-CoA carboxylase inhibitors” (Pfizer Inc., priority 2008, dated 2012)
